Test results: US20230381774A1, “MICROFLUDIC LAB-ON-CHIP DEVICE, MATRIX, SMALL MOLECULES AND THREE-DIMENSIONAL SPHEROIDS FOR CELL REPROGRAMMING” (The Regents of the University of California, priority 2022, published 2023)

How the values were obtained:
Format in all cases: cell-based, mouse
[1] = tested on: histone deacetylase (HDAC); test: HDAC activity assay on nuclear extracts of treated fibroblasts; settings: 10 μM blebbistatin or 5 μM PF573228, 2 hours, vs DMSO
Method: (§1) Nuclear protein extractions were isolated from 5×10^5 fibroblasts treated with vehicle control (DMSO), 10 μM blebbistatin or 5 μM PF573228 for 2 hours using a nuclear extraction kit (EpiGentek, OP-0002), in accordance with the manufacturer's instructions. HAT, HDAC, H3K4 HMT, H3K4 HDM and DNMT activity were measured using the HAT activity/inhibition assay (EpiGentek, P-4003-048), HDAC activity/inhibition assay (EpiGentek, P-4034-096), Histone methyltransferase (H3K4 specific) activity/inhibition assay (EpiGentek, P-3002-1), Histone Demethylase (H3K4 specific) activity/inhibition assay (EpiGentek, P-3074-48), and DNMT activity/inhibition assay (EpiGentek, P-3009-048), respectively. Per the manufacturer's instructions, 20 μg of nuclear extract was added into the assay wells and incubated at 37° C. for 90 minutes. After adding the color developer solution, the absorbance was measured using a plate reader (Infinite […], 30050303) at 450 nm for all the assays with the exception of the Histone Demethylase (H3K4 specific) activity/inhibition assay where we measured the fluorescence using a fluorescence microplate reader at 530 EX/590 EM nm.

[2] = tested on: H3K4-specific histone methyltransferase (HMT); test: H3K4 HMT activity assay on nuclear extracts of treated fibroblasts; settings: 10 μM blebbistatin or 5 μM PF573228, 2 hours, vs DMSO
Method: as §1

5-methylcytosine (5-mC) = test: Global DNA methylation (5-mC) assay; settings: non-transduced fibroblasts, 24 hours, vs control
Method: DNA was isolated from non-transduced fibroblasts treated with vehicle control (DMSO), 10 μM blebbistatin and 5 μM PF573228, respectively, for 24 hours using the PureLink Genomic DNA mini kit (Invitrogen) according to the manufacturer's instructions. To detect global DNA methylation (5-mC) levels in the samples, we utilized the MethylFlash Global DNA Methylation (5-mC) ELISA Easy kit (Epigentek) according to the manufacturer's protocol. 100 ng of DNA sample was utilized per reaction and after adding the color developer solution, the absorbance was measured using a plate reader (Infinite […], 30050303) at 450 nm.

ERK = test: Downstream ERK signaling (Western blot)
Method: Fibroblasts were lysed and collected in Laemmli buffer ([…] Tris-HCl, 10% glycerol, 2% SDS, 5% 2-mercaptoethanol, 0.002% bromophenol blue) containing RIPA buffer (50 mM Tris-HCl, 150 mM NaCl, 1% Triton-X-100, 0.1% SDS, 10 mM NaF, 0.5% sodium deoxycholate) along with protease inhibitors (PMSF, Na3VO4 and Leupeptin) on ice. Protein lysates were centrifuged to pellet cell debris, and the supernatant was collected and used in further analysis. Protein samples were run using SDS-PAGE and transferred to polyvinylidene fluoride (PVDF) membranes. Membranes were blocked in 3% nonfat milk and incubated with primary antibodies overnight. Primary antibodies include pFAK, FAK, αSMA, Calponin, pERK, ERK, and GAPDH. Membranes were washed with Tris-Buffered Saline+0.05% Tween-20 and incubated with HRP-conjugated IgG secondary antibodies (Santa Cruz Biotechnologies) for one hour. Protein bands were visualized using Western Lightning™ Plus—Enhanced Chemiluminscence Substrate (Perkin Elmer Life & Analytical Sciences) and imaged on a ChemiDoc XRS system (Bio-Rad).

[3] = tested on: Ascl1-transduced fibroblasts; test: Single-factor (Ascl1-only) iN reprogramming; settings: 10 μM, relative to control
Method: After transduction, mouse fibroblasts were seeded onto multi-well tissue culture-treated polystyrene dishes (Falcon) coated with laminin (0.1 mg/ml, Corning) at 4,000 cells per cm^2. Twenty-four hours after seeding, the medium was replaced to MEF medium containing doxycycline (2 μg/ml, Sigma). The following day (i.e., day 1) the medium was changed to N3 medium (DMEM/F12 [GIBCO]+N2 supplement [Invitrogen]+B27 supplement [Invitrogen]+1% penicillin/streptomycin [Gibco]+ doxycycline [2 μg/ml, Sigma]) and the cultures were maintained in this medium for the duration of the experiments. For Ascl1-only reprogramming, N3 medium was further supplemented with BDNF (5 ng/ml, R&D systems) and GDNF (5 ng/ml, R&D systems) after day 7. […] After culturing for the desired length (14 days for BAM and 21 days for Ascl1 only), the induced neuronal (iN) cells were analyzed and the reprogramming efficiency was determined.
The reprogramming efficiency was determined by as the percentage of TUBB3^+ iN cells in each condition normalized to the number of cells plated at 24 hours post-seeding. […]

fibroblasts = test: Cell morphology, actin and focal adhesion immunostaining; settings: 24 hours
Method: For immunostaining, cells were fixed with 4% paraformaldehyde (Electron Microscopy Sciences), permeabilized with 0.5% Triton-X-100 (Sigma), and blocked with 5% donkey serum (Jackson Immunoresearch) in phosphate buffered saline (PBS). For actin-cytoskeleton staining, samples were incubated with fluorescein isothiocyanate-conjugated phalloidin (Invitrogen) for 1 hour. Primary antibodies were incubated for 1 hour at room temperature or overnight at 4° C., followed by 1-hour incubation with Alexa 488 and/or Alexa 546-labeled secondary antibodies (Molecular Probes). Nuclei were stained with 4,6-diamino-2-phenylindole (DAPI) (Invitrogen).

| SMILES | HDAC activity [1] | H3K4-specific HMT activity [2] | DNA methylation (5-mC) (5-methylcytosine (5-mC)) | downstream ERK signaling (ERK) | iN cell generation from Ascl1-transduced fibroblasts [3] | actin fibers (fibroblasts) | paxillin punctate (fibroblasts) | cell morphology and spreading (fibroblasts; 10 μM) |
| --- | --- | --- | --- | --- | --- | --- | --- | --- |
| CS(=O)(=O)c1cccc(CNc2nc(Nc3ccc4c(c3)CCC(=O)N4)ncc2C(F)(F)F)c1 [PF573228] | differences | differences | lower levels of DNA methylation | modulated downstream ERK signaling | – | – | – | – |
| Cc1ccc2c(c1)C(=O)C1(O)CCN(c3ccccc3)C1=N2 (centres unmarked) [blebbistatin] | reducing | increased | a decrease in the abundance of DNA methylation marker, 5-methylcytosine (5-mC) | – | could generate significantly more iN cells from Ascl1-transduced fibroblasts relative to control | fewer intact actin fibers | fewer positive paxillin punctate | induced dramatic changes in cell morphology and reduced cell spreading |
